Test results from US7067619B2, “Integrin-binding peptides” (La Jolla Cancer Research Foundation, priority 1993, dated 2006).
Read-outs that look alike come from different tables or passages of the source. Bridge positions count the residues as written; N and C are the ends. Ends that are not written are not given here.

What was measured:
αvβ3 integrin = αvβ3 integrin (Homo sapiens, UniProt P05106+P06756); test: Inhibition of peptide-displaying phage binding to αvβ3 integrin by synthetic peptides; design: The αvβ3, αvβ5 and α5β1 integrins were isolated from human placental extracts; from tissue; host or cells: human placenta; conditions: CRGDCL-displaying phage, αvβ3-coated wells; FIG. 3 (result sentence prints α5β1)
Sequence of αvβ3 integrin (P06756 31-889 limits assumed): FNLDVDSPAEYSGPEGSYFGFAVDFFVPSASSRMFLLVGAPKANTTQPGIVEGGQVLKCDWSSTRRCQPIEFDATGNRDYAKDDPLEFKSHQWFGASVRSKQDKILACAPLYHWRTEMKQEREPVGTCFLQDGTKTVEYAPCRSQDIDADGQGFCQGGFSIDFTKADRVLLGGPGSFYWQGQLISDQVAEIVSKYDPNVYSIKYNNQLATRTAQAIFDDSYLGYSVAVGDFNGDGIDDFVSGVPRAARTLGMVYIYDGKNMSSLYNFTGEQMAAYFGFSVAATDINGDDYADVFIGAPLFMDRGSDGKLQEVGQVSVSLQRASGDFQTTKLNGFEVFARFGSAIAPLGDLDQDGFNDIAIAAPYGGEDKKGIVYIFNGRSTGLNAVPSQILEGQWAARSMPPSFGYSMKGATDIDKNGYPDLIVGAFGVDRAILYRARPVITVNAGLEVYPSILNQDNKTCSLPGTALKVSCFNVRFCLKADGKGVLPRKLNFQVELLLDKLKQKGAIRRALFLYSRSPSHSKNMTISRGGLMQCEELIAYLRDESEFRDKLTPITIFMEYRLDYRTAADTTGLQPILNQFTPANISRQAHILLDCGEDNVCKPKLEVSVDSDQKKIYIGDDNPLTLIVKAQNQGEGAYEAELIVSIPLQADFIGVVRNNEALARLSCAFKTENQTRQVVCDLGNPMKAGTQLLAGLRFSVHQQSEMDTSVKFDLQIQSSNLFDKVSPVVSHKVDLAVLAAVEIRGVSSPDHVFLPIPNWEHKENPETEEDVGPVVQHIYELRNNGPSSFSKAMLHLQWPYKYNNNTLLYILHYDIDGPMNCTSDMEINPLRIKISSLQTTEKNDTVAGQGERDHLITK
Sequence of αvβ3 integrin (P06756 891-1048 partner limits assumed): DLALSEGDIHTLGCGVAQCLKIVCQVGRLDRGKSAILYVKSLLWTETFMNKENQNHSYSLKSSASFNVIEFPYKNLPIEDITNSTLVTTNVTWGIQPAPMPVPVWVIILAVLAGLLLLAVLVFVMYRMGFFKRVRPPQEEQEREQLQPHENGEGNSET
Sequence of αvβ3 integrin (P05106 27-788): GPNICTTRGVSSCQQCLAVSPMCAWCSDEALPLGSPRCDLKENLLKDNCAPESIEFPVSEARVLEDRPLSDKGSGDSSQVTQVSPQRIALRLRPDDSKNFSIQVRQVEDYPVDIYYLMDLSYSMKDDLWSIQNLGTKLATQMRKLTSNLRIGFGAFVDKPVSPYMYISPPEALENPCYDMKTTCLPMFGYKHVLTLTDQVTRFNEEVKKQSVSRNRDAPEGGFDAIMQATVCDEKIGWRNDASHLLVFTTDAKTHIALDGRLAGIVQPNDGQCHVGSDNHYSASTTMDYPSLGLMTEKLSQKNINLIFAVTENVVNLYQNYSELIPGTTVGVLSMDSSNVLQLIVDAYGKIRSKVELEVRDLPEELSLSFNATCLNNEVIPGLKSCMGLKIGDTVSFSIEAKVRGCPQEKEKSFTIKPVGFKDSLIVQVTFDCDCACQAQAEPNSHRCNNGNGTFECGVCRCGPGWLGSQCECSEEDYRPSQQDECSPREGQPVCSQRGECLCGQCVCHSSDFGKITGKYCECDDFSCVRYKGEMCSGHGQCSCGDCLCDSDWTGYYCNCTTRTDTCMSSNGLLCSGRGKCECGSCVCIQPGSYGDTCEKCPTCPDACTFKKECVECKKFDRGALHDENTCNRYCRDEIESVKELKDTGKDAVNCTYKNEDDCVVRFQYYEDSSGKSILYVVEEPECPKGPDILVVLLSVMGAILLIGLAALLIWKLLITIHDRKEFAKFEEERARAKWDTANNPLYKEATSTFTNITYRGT
From the text: (§1) In addition, most of the phage-binding activity in the αvβ3 preparation was captured into microliter wells coated with antibodies against the αv or β3 subunits as described previously (Koivunen et al., J. Biol. Chem., 268:20205–10 (1993). The αIIbβ3 integrin was isolated from outdated platelets (Pytela et al., Science, 231:1559–1562 (1986)).
(§2) Binding of individual cloned phage to integrins was studied in microliter wells as described in Koivunen et al., J. Cell. Biol., 124:373–380 (1994). Phage binding to α5β1 and αvβ3 were assayed in TBS buffer containing 1% BSA and 1 mM MnCl2 and binding to αvβ5 in the presence of 1 mM CaCl2. Phage that were bound were determined by their ability to infect F-pilus positive K91kan bacteria. Bacteria were grown overnight in microliter wells in the presence of tetracycline and the absorbance indicative of bacterial growth was read at 600 nm with an ELISA plate reader.
The ability of […] [SEQ ID NO:12] and CRGDC [SEQ ID NO:37] containing peptides to inhibit binding of CRGDCL-displaying [SEQ ID NO:7] phage to the microwells coated with αvβ3 integrin also was examined. CRGDCL-displaying [SEQ ID NO:7] phage were added to a well and either cyclic […] [SEQ ID NO:6] or cyclic […] [SEQ ID NO:5] was added to compete for binding. Binding was quantitated as described above.

α5β1 integrin [1] = target: T1, α5β1 integrin (Homo sapiens, UniProt P05556+P08648); test: Inhibition of peptide-displaying phage binding to α5β1 integrin by synthetic peptides
T1 construct: The αvβ3, αvβ5 and α5β1 integrins were isolated from human placental extracts; from tissue; host or cells: human placenta
T1 sequence (P08648 42-894 limits assumed): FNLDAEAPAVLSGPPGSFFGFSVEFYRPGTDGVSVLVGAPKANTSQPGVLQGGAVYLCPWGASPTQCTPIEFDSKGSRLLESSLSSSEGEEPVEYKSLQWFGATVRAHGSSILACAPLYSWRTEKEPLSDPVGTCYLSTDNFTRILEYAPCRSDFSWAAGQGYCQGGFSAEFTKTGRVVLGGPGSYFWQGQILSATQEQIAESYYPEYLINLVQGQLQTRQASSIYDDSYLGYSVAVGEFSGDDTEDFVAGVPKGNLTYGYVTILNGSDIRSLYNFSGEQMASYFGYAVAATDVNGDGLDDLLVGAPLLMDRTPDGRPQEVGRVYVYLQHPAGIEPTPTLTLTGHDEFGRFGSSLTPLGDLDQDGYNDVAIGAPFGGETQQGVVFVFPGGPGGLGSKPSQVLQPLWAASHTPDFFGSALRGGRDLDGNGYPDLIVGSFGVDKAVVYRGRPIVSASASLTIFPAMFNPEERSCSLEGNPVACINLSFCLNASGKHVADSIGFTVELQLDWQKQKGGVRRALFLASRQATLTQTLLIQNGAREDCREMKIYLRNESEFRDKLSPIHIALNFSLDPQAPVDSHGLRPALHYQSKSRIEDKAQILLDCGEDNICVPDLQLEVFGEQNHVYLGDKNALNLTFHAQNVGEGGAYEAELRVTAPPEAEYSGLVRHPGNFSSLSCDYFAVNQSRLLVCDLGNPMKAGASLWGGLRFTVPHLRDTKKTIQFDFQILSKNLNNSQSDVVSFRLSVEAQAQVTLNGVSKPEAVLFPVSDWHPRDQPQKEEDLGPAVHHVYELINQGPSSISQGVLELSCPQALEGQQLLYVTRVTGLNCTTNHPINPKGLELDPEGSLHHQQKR
T1 sequence (P08648 895-1049 partner limits assumed): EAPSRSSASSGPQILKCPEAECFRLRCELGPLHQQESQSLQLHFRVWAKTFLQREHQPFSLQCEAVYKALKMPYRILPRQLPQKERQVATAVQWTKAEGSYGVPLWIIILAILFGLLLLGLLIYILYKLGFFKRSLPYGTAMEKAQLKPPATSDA
T1 sequence (P05556 21-798): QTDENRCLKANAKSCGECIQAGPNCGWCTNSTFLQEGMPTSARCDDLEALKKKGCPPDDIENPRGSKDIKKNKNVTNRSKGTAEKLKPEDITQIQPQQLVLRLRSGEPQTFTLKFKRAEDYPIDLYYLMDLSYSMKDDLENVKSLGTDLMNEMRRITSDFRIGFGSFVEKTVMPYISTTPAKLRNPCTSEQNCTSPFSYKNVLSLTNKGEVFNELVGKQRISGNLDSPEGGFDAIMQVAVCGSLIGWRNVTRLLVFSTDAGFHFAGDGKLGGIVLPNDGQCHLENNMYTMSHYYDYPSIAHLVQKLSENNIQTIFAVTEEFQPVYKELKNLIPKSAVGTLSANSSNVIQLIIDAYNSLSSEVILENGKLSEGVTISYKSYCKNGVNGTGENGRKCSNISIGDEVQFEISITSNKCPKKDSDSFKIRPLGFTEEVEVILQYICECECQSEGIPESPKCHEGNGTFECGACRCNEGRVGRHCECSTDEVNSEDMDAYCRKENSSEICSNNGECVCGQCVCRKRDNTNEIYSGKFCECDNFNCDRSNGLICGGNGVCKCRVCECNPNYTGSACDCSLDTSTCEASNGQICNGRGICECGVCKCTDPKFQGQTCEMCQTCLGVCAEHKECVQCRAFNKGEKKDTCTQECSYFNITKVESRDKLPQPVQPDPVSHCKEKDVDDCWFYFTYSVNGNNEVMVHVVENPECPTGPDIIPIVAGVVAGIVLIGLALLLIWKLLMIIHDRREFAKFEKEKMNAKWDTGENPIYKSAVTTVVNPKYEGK
Description: Phage clone containing the RGDGW [SEQ ID NO:9] sequence was incubated for 1 hour in integrin-coated microliter wells in the presence of the competing peptides. After extensive washing, the phage remained bound were determined as described in Example XII.
as §1, §2
Relative affinities of the […] [SEQ ID NO:12] and CRGDC [SEQ ID NO:37] peptides were determined by inhibition of binding of peptide-displaying phage to α5β1 integrin. Peptide-displaying phage were constructed as described by Scott and Smith, Science 249:386–390 (1990) and Example IV. Microwell plates were coated with various integrins as described by Koivunen et al., J. Biol. Chem., 268:20205–10 (1993) and Example II.
The binding of […] [SEQ ID NO:12]-containing peptide ligands to α5β1 integrin was performed as follows. RRETAWA [SEQ ID NO:8]-displaying phage were incubated for 1 hour in the presence of various concentrations of the cyclic peptides containing […] [SEQ ID NO:12] and containing CRGDC [SEQ ID NO:37] in microliter wells coated with the α5β1 integrin. Binding was quantitated by adding K91kan bacteria directly to the wells and growing the bacteria overnight at room temperature (Smith and Scott, Meth. Enzymol., 217:228–257 (1993), which is incorporated herein by reference).
Additional peptide motifs were tested as follows. ELRGDGW-displaying [SEQ ID NO:4] phage were added together with various concentrations of the cyclic peptides containing […] [SEQ ID NO:12] and containing CRGDC [SEQ ID NO:37] into microliter wells coated with the α5β1 integrin, incubated for 1 hour at room temperature and binding to wells was quantitated.

α5β1 integrin [2] = test: Cell attachment to immobilized […] peptide (B2/α27 vs B2/Cl cells); format: cell-based, human; conditions: FIG. 8
From the text: (§3) Cell lines expressing fibronectin-binding integrins were used to determine peptide activities against these integrins in the cell attachment assay described by Ruoslahti et al., Meth. Enzymol., 144:803–831 (1982), which is incorporated herein by reference. Human plasma fibronectin was iodinated as described by Morla and Ruoslahti, J. Cell Biol., 118:421–429 (1992), which is incorporated herein by reference. Vitronectin was obtained from Telios Pharmaceuticals (San Diego, Calif.). […] Peptide was coated on plastic by incubating at 37° C. for 2 hours in phosphate buffered saline containing 0.25% glutaraldehyde to crosslink the peptide. Free binding sites on the plastic were blocked using BSA. Approximately 1×10^5 cells per well were allowed to attach for 1 hour in the presence or absence of competing peptides. Bound cells were quantitated by staining with 0.1% amido black.
In addition to the inhibition of cell attachment to natural ligands, attachment and inhibition assays were performed using the […] [SEQ ID NO:6] peptide as substrate. The microliter well were coated with […] [SEQ ID NO:6] using glutaraldehyde as described above. Briefly, peptide was coated on plastic by incubating at 37° C. for 2 hours in phosphate buffered saline containing 0.25% glutaraldehyde to crosslink the peptide and free binding sites on the plastic were blocked using BSA. The wells were then saturated with BSA followed by the addition of 50,000 B2/α27 or B2/Cl cells in the presence or absence of the indicated inhibitor. […] Bound cells were quantitated by staining with 0.1% amido black.

α5β1 = α5β1 (Homo sapiens, UniProt P05556+P08648); conditions: Nowlin et al., J. Biol. Chem. 268:20352–59 (1993); cited from earlier work
Sequence of α5β1 (P08648 42-894 limits assumed): as the sequence (P08648 42-894 limits assumed) above
Sequence of α5β1 (P08648 895-1049 partner limits assumed): as the sequence (P08648 895-1049 partner limits assumed) above
Sequence of α5β1 (P05556 21-798): as the sequence (P05556 21-798) above

α4β1 = α4β1 (Homo sapiens, UniProt P05556+P13612); conditions: Nowlin et al., J. Biol. Chem. 268:20352–59 (1993); cited from earlier work
Sequence of α4β1 (P13612 34-1032): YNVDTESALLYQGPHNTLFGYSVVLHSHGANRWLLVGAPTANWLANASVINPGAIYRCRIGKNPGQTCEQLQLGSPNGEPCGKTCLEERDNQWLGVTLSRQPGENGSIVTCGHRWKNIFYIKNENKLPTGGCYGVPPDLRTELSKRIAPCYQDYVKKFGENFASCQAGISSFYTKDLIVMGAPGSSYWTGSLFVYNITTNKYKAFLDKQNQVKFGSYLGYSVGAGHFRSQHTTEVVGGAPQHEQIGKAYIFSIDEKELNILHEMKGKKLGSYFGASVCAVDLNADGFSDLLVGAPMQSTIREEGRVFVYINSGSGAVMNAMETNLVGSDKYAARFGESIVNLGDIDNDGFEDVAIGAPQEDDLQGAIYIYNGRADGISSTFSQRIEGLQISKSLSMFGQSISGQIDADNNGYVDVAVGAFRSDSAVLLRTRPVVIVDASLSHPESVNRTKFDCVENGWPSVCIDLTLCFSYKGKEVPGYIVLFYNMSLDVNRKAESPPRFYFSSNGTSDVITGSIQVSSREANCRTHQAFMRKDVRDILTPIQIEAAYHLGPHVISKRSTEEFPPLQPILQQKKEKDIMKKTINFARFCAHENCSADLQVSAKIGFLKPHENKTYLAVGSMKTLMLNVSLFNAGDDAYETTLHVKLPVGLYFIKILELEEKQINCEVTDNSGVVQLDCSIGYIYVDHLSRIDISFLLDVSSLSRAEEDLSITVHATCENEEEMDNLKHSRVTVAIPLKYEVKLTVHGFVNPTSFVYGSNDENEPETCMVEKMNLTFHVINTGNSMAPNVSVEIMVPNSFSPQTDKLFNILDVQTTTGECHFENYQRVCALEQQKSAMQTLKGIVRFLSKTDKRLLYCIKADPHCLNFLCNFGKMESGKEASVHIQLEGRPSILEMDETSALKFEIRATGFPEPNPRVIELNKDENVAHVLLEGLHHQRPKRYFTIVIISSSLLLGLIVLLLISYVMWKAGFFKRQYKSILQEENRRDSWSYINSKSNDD
Sequence of α4β1 (P05556 21-798): as the sequence (P05556 21-798) above

α5β1 integrin [3] = test: Inhibition of α5β1-mediated cell attachment to fibronectin; format: cell-based, human
From the text: Cell lines expressing different integrins were used to examine peptide inhibition of integrin function. A human melanoma cell line, C8161, a fibroblast cell line, WI-38, and an osteosarcoma cell line, MG-63 (described by Seftor et al., Canc. Res., 53:3411–3415 (1993); Vogel et al., J. Biol. Chem., 265:5934–5937 (1990); and Pytela et al. (1985), supra, respectively, each of which is incorporated herein by reference) attach to fibronectin through α5β1 integrin, as does B2/α27, a CHO cell line transfected with human α5. B2/C1, the control parental CHO line (Bauer et al., J. Cell. Biol. 116:477–487 (1992), which is incorporated herein by reference), attaches via […]. CHO cells C11 and NIH 3T3 cells express the endogenous Chinese hamster and mouse α5β1 integrins, respectively. The human melanoma cells, A375-M, attach to fibronectin through both α5β1 and α4β1 integrins (Mould et al., J. Biol. Chem. 265:4020–4024 (1990), which is incorporated herein by reference). CHO cell line B2/v7 express the αvβ1 integrin (Zhang et al., J. Cell. Biol. 122:235–242 (1993), which is incorporated herein by reference). The vitronectin-binding integrins […] and αvβ3 were assayed using the cell line HT-29 and IMR-90, respectively (Koivunen et al., J. Biol. Chem. 268: 20205–20210 (1993)).
as §3
Inhibition of cell attachment mediated by either fibronectin- or vitronectin-binding integrins was performed to determine peptide specificity in a biologically relevant system. The assays and cell lines were performed as described above. FIGS. 5 and 6 show the results of cell attachment mediated by the fibronectin binding integrins α5β1 and αvβ1.

α5β1 integrin [4] = target: T1, α5β1 integrin; test: Panning and binding of peptide-displaying phage on α5β1 integrin; conditions: phage-displayed sequence
From the text: as §1
Peptide libraries were constructed in fuse 5 vector (Scott and Smith, Science 249:386–390 (1990)) as described previously (Koivunen et al., J. Cell Biol., 124:373–380 (1994). The CX5C, CX6C, CX7C and CX9 [SEQ ID NOs:39–42, respectively] libraries were prepared using synthetic oligonucleotides containing core sequences TGT(NNK)5TGT, TGT(NNK)6TGT, TGT(NNK)7TGT and TGT(NNK)9 [SEQ ID NOS:43–46, respectively] (N=equal molar mixture of A, C, G, T; K=G or T), respectively. The oligonucleotides were made double-stranded by PCR amplification with 5 cycles, purified and ligated to the N-terminus of pIII gene of fuse 5 vector. The CX5C, CX6C, CX7C and CX9 [SEQ ID NOS:39–42, respectively] vectors were transfected into MC1061 cells using 16, 60, 263 and 250 electroporations, respectively. Bacteria were cultured for 24 hours in the presence of 20 μg/ml of tetracycline, and phage were collected from the supernatant by precipitation twice with polyethylene glycol. The phage pellets were dissolved at approximately 10^13 transducing units (TU)/ml in TBS buffer containing 0.02% NaN3 and stored at 4° C. The yields of the CX5C, CX6C, CX7C and CX9 [SEQ ID NOS:39–42, respectively] primary libraries were 3.5×10^8, 1.1×10^9, 4.5×10^5 and 3.5×10^8 clones, respectively. […]
as §2, with “Biol., 124:373–380 (1994). Phage binding to α5β1 and αvβ3 were assayed in TBS buffer containing 1% BSA and 1 mM MnCl2 and binding to αvβ5 in the presence of 1 mM CaCl2.” left out

GACRGDCLGA (disulfide 3-7 (inferred)) [reference compound]
inhibition of binding of CRGDCL-displaying phage to integrin-coated wells (αvβ3 integrin): completely inhibited
inhibition of binding of ELRGDGW-displaying phage to α5β1 integrin (α5β1 integrin [1]; ELRGDGW-displaying phage, CRRETAWAC compared with CRGDC, FIG. 2): approximately the same degree
inhibition of B2/α27 attachment to immobilized RRETAWA-containing peptide (α5β1 integrin [2]; inhibitor at 1 mM): inhibited

RCD(ThioP)C
binding to α5β1 (α5β1): high affinity
binding to α4β1 (α4β1): high affinity

GRGESP [reference compound]
effect on RRETAWA-displaying phage binding to α5β1 (α5β1 integrin [1]; RRETAWA-displaying phage, FIG. 4): no effect
effect on α5β1-mediated cell attachment to fibronectin (α5β1 integrin [3]; B2/α27 cells, FIG. 5): no effect

CRGDGWC [A*CRGDGWC*G]
binding of peptide-displaying phage to the α5β1 integrin (α5β1 integrin [4]): among the best binders
activity in inhibiting binding of RGD-displaying phage to α5β1 relative to *CRGDC* (α5β1 integrin [1]; RGDGW phage, more active than *CRGDC*, FIG. 9): 5 fold
IC50 (α5β1 integrin [3]; B2/a27 cells (human α5, CHO β1), FIG. 11, read-out: IC50 of inhibition of attachment of B2/a27 cells to fibronectin): 6 µM
potency relative to *CRGDC* in B2/a27 attachment to fibronectin (α5β1 integrin [3]; B2/a27 cells, more potent than *CRGDC*): 7 fold
potency relative to *CRRETAWAC* in B2/a27 attachment to fibronectin (α5β1 integrin [3]; B2/a27 cells, more potent than *CRRETAWAC*): 7 fold
potency relative to *CRRETAWAC* in MG 63 cells (α5β1 integrin [3]; MG 63 cells, more potent than *CRRETAWAC*): 4 fold
IC50 (α5β1 integrin [3]; MG 63 cells, read-out: IC50 of inhibition of attachment of MG 63 cells to fibronectin): 10 µM
improvement in activity compared to linear GRGDSP (α5β1 integrin [3]; α5β1-mediated attachment to fibronectin): about 50 fold

O=C(O)CN(CCN(CC(=O)O)CC(=O)O)CC(=O)O [EDTA, reference compound]
inhibition of B2/α27 attachment to immobilized RRETAWA-containing peptide (α5β1 integrin [2]; inhibitor at 10 mM): inhibited

CRSETYWKC
binding of peptide-displaying phage to the α5β1 integrin (α5β1 integrin [4]): selectively bind
